The values below come from patent publication US20070072912A1, “Alicyclic-amine-substituted 4-carboxamido-benzimidazoles as parp-inhibitors and antioxidants” (Cedars-Sinai Medical Center, priority 2003, published 2007).

Structures can show the parent of a compound that is named as a salt.

T1 sequence (P27008 whole entry): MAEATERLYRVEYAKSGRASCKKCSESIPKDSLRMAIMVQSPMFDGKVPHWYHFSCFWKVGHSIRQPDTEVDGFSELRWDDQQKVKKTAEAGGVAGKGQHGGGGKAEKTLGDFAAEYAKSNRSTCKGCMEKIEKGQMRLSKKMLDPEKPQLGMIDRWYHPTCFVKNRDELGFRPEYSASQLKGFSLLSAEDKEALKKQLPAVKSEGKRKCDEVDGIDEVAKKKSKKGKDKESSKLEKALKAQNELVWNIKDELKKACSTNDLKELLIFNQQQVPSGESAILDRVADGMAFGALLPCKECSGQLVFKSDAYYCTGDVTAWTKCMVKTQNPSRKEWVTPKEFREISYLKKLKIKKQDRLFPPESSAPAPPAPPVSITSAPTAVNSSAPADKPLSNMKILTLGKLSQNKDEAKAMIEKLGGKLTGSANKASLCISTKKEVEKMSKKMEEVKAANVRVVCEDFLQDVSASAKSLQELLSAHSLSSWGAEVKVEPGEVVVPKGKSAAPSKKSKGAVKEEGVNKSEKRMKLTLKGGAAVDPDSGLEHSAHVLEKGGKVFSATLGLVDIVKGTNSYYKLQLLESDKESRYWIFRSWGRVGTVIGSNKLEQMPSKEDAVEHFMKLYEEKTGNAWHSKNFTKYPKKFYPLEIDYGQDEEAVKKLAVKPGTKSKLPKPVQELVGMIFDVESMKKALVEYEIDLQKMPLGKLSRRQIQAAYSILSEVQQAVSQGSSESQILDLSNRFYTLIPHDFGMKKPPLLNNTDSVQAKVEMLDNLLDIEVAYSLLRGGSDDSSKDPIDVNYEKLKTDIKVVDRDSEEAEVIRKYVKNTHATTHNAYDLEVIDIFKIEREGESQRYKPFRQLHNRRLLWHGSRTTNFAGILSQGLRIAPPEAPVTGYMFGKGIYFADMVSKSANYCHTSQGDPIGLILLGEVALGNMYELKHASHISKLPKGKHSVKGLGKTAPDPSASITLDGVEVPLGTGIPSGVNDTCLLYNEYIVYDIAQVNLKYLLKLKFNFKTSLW

One series addresses T1, Poly-ADP-ribose polymerase (PARP enzyme) (Rattus norvegicus, UniProt P27008).
T1 construct: Poly-ADP-ribose polymerase was isolated from rat liver; from tissue; host or cells: rat liver
As to the kind of experiment: Inhibitory effect of benzimidazole derivatives on PARP enzyme in vitro ([3H]NAD+ incorporation). It counts as biochemical.
Conditions: not given
The protocol:
Assay to test inhibitory effects of benzimidazole derivatives on PARP enzyme in vitro.
The potential inhibitory effect of benzimidazole derivatives were tested in this assay system. The PARP activity was determined in 130 μl reaction mixture contained 100 mM Tris-HCl buffer, pH 8.0, 10 mM MgCl2, 10% glycerol, 1.5 mM DTT, 1 mM [Adenine-2,8-^3H] NAD^+ (4.500 cpm/nmol), 10 μg activated DNA and 10 μg histones. The incubation time was 15 minutes, and the reaction was stopped by addition of trichloro-acetic acid (8%). After addition of 0.5 mg albumine, precipitation was allowed to proceed for at least 20 minutes on ice, and the insoluble material was collected on a glass filter washed with 5% perchloric acid. The protein-bound radio-activity was determined by a LS-200 Beckman scintillation counter.
By IC50 is commonly meant the concentration needed to halve the response being measured. Regarding `CC1(C)C=C(c2nc3c(C(N)=O)cccc3[nH]2)C(C)(C)N1[O]` [Compound 1, 2-(1-oxyl-2,2,5,5-tetramethyl-2,5-dihydro-1H-pyrrol-3-yl)-1H-benzimidazole 4-carboxylic acid amide radical], the IC50 is 721 nM.

With `CC1(C)C=C(COc2ccc(-c3nc4c(C(N)=O)cccc4[nH]3)cc2)C(C)(C)N1[O]` [Compound 20, 2-[4-(1-oxyl-2,2,5,5-tetramethyl-2,5-dihydro-1H-pyrrol-3-yl-methoxy)-phenyl]-1H-benzimidazole 4-carboxylic acid amide radical], inhibition was half-maximal at 564 nM (IC50).

For the compound `CC1(C)C=C(c2ccc(-c3nc4c(C(N)=O)cccc4[nH]3)cc2)C(C)(C)N1[O]` [Compound 11, 2-[4-(1-oxyl-2,2,5,5-tetramethyl-2,5-dihydro-1H-pyrrol-3-yl)-phenyl]-1H-benzimidazole 4-carboxylic acid amide radical], the concentration for half-maximal inhibition (IC50) stood at 78 nM.

In turn, `COc1cc(-c2nc3c(C(N)=O)cccc3[nH]2)ccc1OCC1=CC(C)(C)N([O])C1(C)C` [Compound 22, 2-[3-methoxy-4-(1-oxyl-2,2,5,5-tetramethyl-2,5-dihydro-1H-pyrrol-3-yl-methoxy)-phenyl]-1H-benzimidazole 4-carboxylic acid amide radical] registered an IC50 of 472 nM.

For `CC1(C)C(c2cccc(C(F)(F)F)c2)=C(c2nc3c(C(N)=O)cccc3[nH]2)C(C)(C)N1[O]` [Compound 9, 2-[1-oxyl-2,2,5,5-tetramethyl-4-(3-trifluoromethyl-phenyl)-2,5-dihydro-1H-pyrrol-3-yl]-1H-benzimidazole 4-carboxylic acid amide radical], the concentration for half-maximal inhibition (IC50) was 149 nM.

Regarding `CN1C(C)(C)C=C(c2nc3c(C(N)=O)cccc3[nH]2)C1(C)C` [Compound 13, 2-(1,2,2,5,5-pentamethyl-2,5-dihydro-1H-pyrrol-3-yl)-1H-benzimidazole 4-carboxylic acid amide], the IC50 came to 42 nM.

`CC1(C)C(c2ccccc2)=C(c2nc3c(C(N)=O)cccc3[nH]2)C(C)(C)N1[O]` [Compound 7, 2-(1-oxyl-4-phenyl-2,2,5,5-tetramethyl-2,5-dihydro-1H-pyrrol-3-yl)-1H-benzimidazole 4-carboxylic acid amide radical] yielded an IC50 of 1500 nM.

`CC1(C)NC(C)(C)c2sc(-c3nc4c(C(N)=O)cccc4[nH]3)cc21` [Compound 25, 2-(4,4,6,6-tetramethyl-4,6-dihydro-5H-thieno[2,3-c]pyrrol-2-yl)-1H-benzimidazole 4-carboxylic acid amide] registered a half-maximal inhibitory concentration (IC50) of 354 nM.

In turn, `CC1(C)C=C(c2nc3c(C(N)=O)cccc3[nH]2)CC(C)(C)N1` [Compound 19, 2-(2,2,6,6-tetramethyl-1,2,3,6-tetrahydro-pyridin-4-yl)-1H-benzimidazole 4-carboxylic acid amide] came in with an IC50 of 14 nM.

The compound `CC1(C)C(Br)=C(c2nc3c(C(N)=O)cccc3[nH]2)C(C)(C)N1[O]` [Compound 5, 2-(4-bromo-1-oxyl-2,2,5,5-tetramethyl-2,5-dihydro-1H-pyrrol-3-yl)-1H-benzimidazole 4-carboxylic acid amide radical] showed an IC50 of 201 nM.

In the case of `COc1cc(-c2nc3c(C(N)=O)cccc3[nH]2)ccc1OCC1=CC(C)(C)NC1(C)C` [Compound 23, 2-[3-methoxy-4-(2,2,5,5-tetramethyl-2,5-dihydro-1H-pyrrol-3-yl-methoxy)-phenyl]-1H-benzimidazole 4-carboxylic acid amide], the IC50 was determined as 432 nM.

Take `CC1(C)c2cc(-c3nc4c(C(N)=O)cccc4[nH]3)sc2C(C)(C)N1[O]` [Compound 24, 2-(5-oxyl-4,4,6,6-tetramethyl-4,6-dihydro-5H-thieno[2,3-c]pyrrol-2-yl)-1H-benzimidazole 4-carboxylic acid amide radical]: half-maximal inhibition (IC50) required 3400 nM.

Take `CC1(C)NC(C)(C)C(c2nc3c(C(N)=O)cccc3[nH]2)=C1c1cccc(C(F)(F)F)c1` [Compound 10, 2-[2,2,5,5-tetramethyl-4-(3-trifluoromethyl-phenyl)-2,5-dihydro-1H-pyrrol-3-yl]-1H-benzimidazole 4-carboxylic acid amide]: the concentration for half-maximal inhibition (IC50) is 133 nM.

`CC1(C)C(c2nc3c(C(N)=O)cccc3[nH]2)=C(c2cccc3c2oc2ccccc23)C(C)(C)N1[O]` [Compound 16] gave an IC50 of 1800 nM.

Staying with this series, now noted: PARP isolated from rat liver, 1 mM [3H]NAD+, 15 min incubation; read-out: PARP IC50.
In the case of `CC1(C)C=C(c2nc3c(C(N)=O)cccc3[nH]2)C(C)(C)N1` [Compound 2, 2-(2,2,5,5-tetramethyl-2,5-dihydro-1H-pyrrol-3-yl)-1H-benzimidazole 4-carboxylic acid amide], the half-inhibitory concentration (IC50) turned out to be 345 nM.

As for `CC1(C)C=C(COc2ccc(-c3nc4c(C(N)=O)cccc4[nH]3)cc2)C(C)(C)N1` [Compound 21, 2-[4-(2,2,5,5-tetramethyl-2,5-dihydro-1H-pyrrol-3-yl-methoxy)-phenyl]-1H-benzimidazole 4-carboxylic acid amide], the IC50 turned out to be 572 nM.

With `CC(=O)N1C(C)(C)C=C(c2nc3c(C(N)=O)cccc3[nH]2)C1(C)C` [Compound 14, 2-(1-acetyl-2,2,5,5-tetramethyl-2,5-dihydro-1H-pyrrol-3-yl)-1H-benzimidazole 4-carboxylic acid amide], the IC50 came to 49 nM.

As to `CC1(C)NC(C)(C)C(c2cccc3c2oc2ccccc23)=C1c1nc2c(C(N)=O)cccc2[nH]1` [Compound 17], the IC50 was 8200 nM.

Turning to `CC1(C)NC(C)(C)C(c2nc3c(C(N)=O)cccc3[nH]2)=C1Br` [Compound 6, 2-(4-bromo-2,2,5,5-tetramethyl-2,5-dihydro-1H-pyrrol-3-yl)-1H-benzimidazole 4-carboxylic acid amide], the IC50 worked out at 137 nM.

As to `COC(=O)C1C(c2nc3c(C(N)=O)cccc3[nH]2)C(C)(C)NC1(C)C` (centres unmarked) [Compound 4, 4-(4-carbamoyl-1H-benzimidazol-2-yl)-2,2,5,5-tetramethyl-pyrrolidine-3-carboxylic acid methyl ester], the IC50 is 216 nM.

Take `CC1(C)C=C(c2nc3c(C(N)=O)cccc3[nH]2)CC(C)(C)N1O` [Compound 18, (1-hydroxy-2,2,6,6-tetramethyl-1,2,3,6-tetrahydro-pyridin-4-yl)-1H-benzimidazole 4-carboxylic acid amide]: the IC50 is 26 nM.

On to `CC1(C)C=C(c2ccc(-c3nc4c(C(N)=O)cccc4[nH]3)cc2)C(C)(C)N1` [Compound 12, 2-[4-(2,2,5,5-tetramethyl-2,5-dihydro-1H-pyrrol-3-yl)-phenyl]-1H-benzimidazole 4-carboxylic acid amide], for which the IC50 was 98 nM.

With `CON1C(C)(C)C=C(c2nc3c(C(N)=O)cccc3[nH]2)C1(C)C` [Compound 15, 2-(1-methoxy-2,2,5,5-tetramethyl-2,5-dihydro-1H-pyrrol-3-yl)-1H-benzimidazole 4-carboxylic acid amide], the concentration for half-maximal inhibition (IC50) turned out to be 61 nM.

As for `CC1(C)NC(C)(C)C(c2nc3c(C(N)=O)cccc3[nH]2)=C1c1ccccc1` [Compound 8, 2-(4-phenyl-2,2,5,5-tetramethyl-2,5-dihydro-1H-pyrrol-3-yl)-1H-benzimidazole 4-carboxylic acid amide], the half-maximal inhibitory concentration (IC50) turned out to be 310 nM.

Test system in the next series: not given
Assay: not given
Conditions: not given
The term melting point denotes the temperature of the solid-liquid transition. For the compound `CC1(C)C=C(CSc2nc3c(C(N)=O)cccc3[nH]2)CC(C)(C)N1` [Compound 29, 2-(2,2,6,6-tetramethyl-1,2,3,6-tetrahydro-pyridin-4-yl-methylsulphanyl)-1H-benzimidazole 4-carboxylic acid amide], the melting point lay in the range of 245 to 246 °C.

As for `CC1(C)C=C(CSc2nc3c(C(N)=O)cccc3[nH]2)C(C)(C)N1` (as salt: HCl) [Compound 27, 2-(2,2,5,5-tetramethyl-2,5-dihydro-1H-pyrrol-3-yl-methyl-sulphanyl)-1H-benzimidazole 4-carboxylic acid amide], the melting point fell in the range of 209 to 211 °C.
